The text below walks through data of patent publication US20240041922A1, “METHODS AND COMPOSITIONS” (Monash University, priority 2020, published 2024).

One assay relates to PAX7+ satellite cells. The experiment in a line: Primary mouse myoblast mono- and co-cultures, PAX7+ satellite cell proliferation (EdU). Format: cell-based. To be noted: for satellite cell proliferation on supplementation: myoblast monoculture (MB) and MB+3T3 co-culture, 24 h. The method, then:
Larvae: Labelling and detection was carried out as previously described (Nguyen, P. D. et al. Muscle stem cells undergo extensive clonal drift during tissue growth via Meox1-mediated induction of G2 cell-cycle arrest. […] Cell culture: Cells were incubated for 1 h in media supplemented with 10 μM EdU. […] Cells were processed using the Click-iTTM EdU Alexa FluroTM 647 imaging Kit (Thermo Fisher) following the manufacturer's protocol. For isolation of primary mouse myoblasts, limb skeletal muscle from E17.5 C57/BL6J mice were minced and digested in 0.125% Trypsin at 37° C. for 20 min. […] Myoblasts were again depleted for fibroblasts prior to co-culturing on gelatin-coated 48 well plates in DMEM+20% FBS+10% L929-conditioned medium. 100,000 myoblasts were plated with either 7,500 MafB/c-Maf deficient (Maf-DKO) macrophages (Aziz, A., Soucie, E., Sarrazin, […]. MafB/c-Maf deficiency enables self-renewal of differentiated functional macrophages. […] For drug treatments, the media were supplemented with appropriate doses and cultured for 24 h.

Another assay concerns C2C12 myoblasts. The experiment in a line: C2C12 myoblast proliferation (EdU incorporation). Format: cell-based, mouse. The method, then:
Larvae: Labelling and detection was carried out as previously described (Nguyen, P. D. et al. Muscle stem cells undergo extensive clonal drift during tissue growth via Meox1-mediated induction of G2 cell-cycle arrest. […] Cell culture: Cells were incubated for 1 h in media supplemented with 10 μM EdU. […] Cells were processed using the Click-iTTM EdU Alexa FluroTM 647 imaging Kit (Thermo Fisher) following the manufacturer's protocol. The mouse muscle cell line […]. Serial passaging and differentiation of myogenic cells isolated from dystrophic mouse muscle. Nature 270, 725 (1977) were cultured in growth media (Dulbecco's Modified Eagle Medium (4.5 g/l D-Glucose, No L Glutamine, No Sodium Pyruvate (Gibco))+20% Fetal Bovine Solution-One Shot (Gibco)+1% Glut Max 100x (Gibco)). Cells were maintained at 37° C., 5% CO2. Cells at 70% confluence, passage 8 were extracted from T75 flasks with 0.025% Tryspin EDTA (Gibco), neutralised in growth media, spun at 180×g for 5 min to pellet cells. The cells were then resuspended in 10 ml of fresh growth media. 500 μl of cells were plated on a 8-well on cover glass II (Sarstedt) chamber slide at a density of 1×10^3 cells/ml. Cells were left 4 h at 37° C. to re-attach. For drug treatments, the media were supplemented with appropriate doses and cultured for 6 h.

Assay [1] concerns wound-resident muscle stem cells. The assay is described as follows: Larval zebrafish needle stab muscle injury, wound site proliferation (EdU). It is filed as in vivo. As to the method:
4dpf larvae were anaesthetized in 0.01% tricaine (MS-222) (Sigma-Aldrich) in Ringer's solution. Mechanical injures were targeted either to the dorsal or ventral myotome above the cloaca when the larvae is oriented dorsal to the top, anterior to the left. Needle-stick injury was carried out as previously described (Gurevich, D. B. el al. Asymmetric division of clonal muscle stem cells co-ordinate muscle regeneration in vivo. Science 353 6295 aad9969 (2016)). Briefly, the myotome was subjected to a single 30-gauge needle puncture that generates an extensive injury with many damaged muscle fibres. For laser-induced injury, anaesthetised larvae were mounted in a thin layer of 1% low-melt agarose in Ringer's solution. Injuries were carried out using a UV-nitrogen laser pulsed through a coumarin 440 nm dye cell coupled to a Zeiss Axioplan microscope (MicroPoint Laser System, Andor Technology). On average a laser injury required pulses for 5-10 sec from laser beams focused through a 40× water immersion objective. For time-lapse analysis of the immediate response to injury, muscle fibre ablations were achieved using a SIM scanner (Olympus) at 790 nm and 200 msec dwell time at 100% laser power on an Olympus FVMPE-RS upright multi-photon microscope equipped with a 25×/1.05 water immersion objective. Injury-responding macrophages were tracked using the manual tracking plugin in Fiji.
Cell ablation was carried out as previously described (Pisharath, H. & Parsons, M. J. in Zebrafish 133-143 (Springer, 2009)) with minor modifications. Larvae at the appropriate stage were incubated in 5-10 mM metronidazole (Mtz) (Sigma-Aldrich) in Ringer's solution and daily refreshed until experimental end point. Drug treatments were carried out by incubating 4 dpf needle stick injured larvae in 5 and 10 μM cenicriviroc (CVC) (Med Chem Express) and 5 and 10 μM maraviroc (MVC) (Med Chem Express) in Ringer's solution immediately post injury and refreshed daily.
The effect of drug treatment on laser ablation muscle injury was assayed by treating larvae with 5 μM CVC for 2 h prior to injury and with larvae being maintained in the drug until experimental end point. […] Chemokine supplementation experiments were carried out in plasticware coated with 0.1% bovine serum albumin (BSA) overnight (rinsed in Ringer's solution prior to use) to minimise protein adsorption. Larvae were treated with 57 nM recombinant human visfatin (hrNAMPT(1)) (PeproTech), 57 nM recombinant murine CCL8/MCP-2 (mrCCL8) (PeproTech) and combinations with Mtz and CVC.
Larvae: Labelling and detection was carried out as previously described (Nguyen, P. D. et al. Muscle stem cells undergo extensive clonal drift during tissue growth via Meox1-mediated induction of G2 cell-cycle arrest. Cell Stem Cell 21, 107-119. e106 (2017))^55 with minor alteration. 6 dpf/2 dpi larvae were pulsed with 2.5 nM EdU (Thermo Fisher) for 1h and chased for a further 1.5 h prior to fixation. Cell culture: Cells were incubated for 1 h in media supplemented with 10 μM EdU. Following Edu pulse, C2C12 cells were fixed immediately, while primary mouse myoblast co-cultures were rinsed in PBS, replaced with media and incubated for a further 2 h following which the cells were fixed. Cells were processed using the Click-iT™ EdU Alexa Fluro™ 647 imaging Kit (Thermo Fisher) following the manufacturer's protocol.

A further assay deals with rectus femoris muscle. To be noted: for muscle architecture / regenerated muscle area: delivered in fibrin hydrogel, 10 days post treatment. As to the method:
Injury: male C57BL/6J mice aged between 10-12 weeks were anesthetised and shaved on the hind left leg. A unilateral incision measuring approximately 1 cm was made exposing the underlying fascia. The left hind limb was extended and exteriorised via the incision site by retracting the surrounding tissue. A 3×4 mm full thickness segment of the rectus femoris muscle was removed. Directly after, the injury site was filled with fibrin hydrogel with or without 200 ng or 500 ng of hrNAMPT(1) (hydrogel components; 40 μl, 8 mg/ml human fibrinogen (FIB3, Enzyme Research Laboratories), 4 U/ml bovine thrombin (T4648, Sigma), 5 mM CaCl2, 17 μg/ml of aprotinin (ab146286, Abcam)) which polymerized in the defect. Then, the soft tissue was closed with stitches.
Histology: 10 days after treatment, animals were sacrificed and the wounds were harvested for histological analysis. The defect site and associated proximal and distal segment of the quadriceps muscle (including the rectus femoris, vastus medialis and vastus lateralis) were excised and embedded. Histological analysis was performed on serial paraffin sections (4 μm sections collected passing the central portion of the wound). Multiple sections were stained with Masson's Trichrome (to detect collagen deposition) and the extent of fibrosis (represented by a blue stain) was measured by histomorphometric analysis using ImageJ software (version 1.51h, National Institutes of Health, USA). To maintain uniformity between samples, the length of the vastus medialis taken at multiple depths ranging from 1.0 mm-3.0 mm serves as a reference between tissue sections to determine the depth of sectioning. For fibrotic quantification, average muscle fibrosis area at each depth was scored and normalised with the area of the rectus femoris. Total area of muscle is determined by calculating the average area of rectus femoris at each depth.
Immune cell profiling and PAX7^+ cell quantification with flow cytometry: 4, 6 or 8 days after treatment with either 0.5 μg of hrNAMPT(1) delivered by fibrin hydrogel or control fibrin hydrogel only, mice were euthanised via CO2 asphyxiation. The defect site and associated proximal and distal segment of the quadricep muscles were isolated and placed into 890 μl of complete RPMI (with 10% FBS and 2 mM Glutamax, Life Technologies). The tissue was minced with surgical scissors and 100 μl of 10 mg/ml Collagenase II (Sigma-Aldrich) and 10 μl of 10 mg/ml DNAse I (Biolabs), while 100 μl of dispase II (10 mg/ml) was added into the digestion for PAX7 acquisition. The mixture was vortexed and incubated at 37° C. for 45 min. The collagenase was then inactivated with 500 μl ice-cold PBS, 5% FBS, 5 mM EDTA. The mixture was strained subsequently through 70 μm and 40 μm filters. The cell suspension was further diluted with 1 ml complete RPMI and centrifuged for 10 min at 300× g. The supernatant was discarded and the pellet was resuspended in 250 μl complete RPMI and aliquoted into wells of a 96-well U bottom plate for antibody staining. The cell solutions were centrifuged, supernatant discarded, and washed with PBS. The cell viability stain used was 100 μl of Zombie Aqua (Biolegend) Live-Dead dye diluted in PBS (1:400 dilution) and incubated for 30 min at 4° C. The cells were then blocked with FcX (anti-CD16/32 antibodies, Biolegend, 1 μg/ml) flow cytometry buffer (PBS, 5% FBS). The cells were kept for 20 min at 4° C., washed with flow cytometry buffer and centrifuged. […]

[2] abbreviates: single dose 0.5 μg in fibrin hydrogel, vs fibrin only.

Entries after “also recorded” stand apart in the source; their conditions may differ. Like-named read-outs stand apart in the source and are kept apart here.

In the case of `O=C(NCC(=O)N1CC[C@H](N[C@H]2CC[C@@](O)(c3ccc(-c4ncccn4)cn3)CC2)C1)c1cccc(C(F)(F)F)c1` [PF-4136309, reference compound], in the assay with PAX7+ satellite cells (MB+macrophage co-culture, 100 nM inhibitor), the “effect on macrophage-stimulated satellite cell proliferation” value was “had no negative effect”. Further, the “effect on NAMPT-stimulated satellite cell proliferation” value in the assay on PAX7+ satellite cells (with hrNAMPT, 100 nM inhibitor) is “maintained”. Further, the “effect on NAMPT-induced myoblast proliferation” value with C2C12 myoblasts (co-administration with NAMPT, 6 h) is recorded as “does not hinder NAMPT's stimulatory effect on myoblast proliferation”.
With “mrCCL2: recombinant murine CCL2/MCP-1 (PeproTech), CCR2-specific ligand”, the “myoblast proliferation, factor added alone” value in the assay with C2C12 myoblasts (6 h in growth media) is “failed to increase proliferative rates beyond that of the control”.
On to “Nicotinamide phosphoribosyltransferase [NAMPT]”, for which the “wound site proliferation in macrophage-ablated larvae” value in assay [1] (5 mM Mtz added at 4 dpf/0 dpi) was “rescues the proliferation deficit generated by ablating macrophages; also recorded: rescues the proliferative deficit that occurs upon macrophage ablation; also recorded: functioned to rescue wound site proliferation in macrophage-ablated larvae”. For the same compound, the “wound site proliferation, NAMPT together with CVC” value in assay [1] (Ccr5 inhibited by CVC) is reported as “failed to rescue the proliferation defect; also recorded: resistant to NAMPT mediated rescue; also recorded: failed to rescue the proliferation deficit when supplemented in conjunction with CVC”. The “increase in wound site proliferation above control response in macrophage-ablated larvae” value in assay [1] (macrophages ablated with Mtz) was found to be 10.96±3.55%. In assay [1] (needle stab injury, agent alone), the “wound site muscle stem cell proliferation” value is “specifically enhanced wound-resident muscle stem cell proliferation; also recorded: increases wound site proliferation in control settings”. The “increase in muscle stem cell proliferation within the wound site vs control” value in assay [1] (needle stab injury, supplementation) is given as 30.70±4.26%. Also, in the assay on rectus femoris muscle (6 days post treatment), the “centrally nucleated muscle fibres” value is listed as “significant increase the number of centrally nucleated de novo muscle fibres”. The “muscle architecture / regenerated muscle area” value with rectus femoris muscle is reported as “significantly increased the regenerated muscle area”; with rectus femoris muscle (listed as hrNAMPT), “able to fully restore muscle architecture”. Besides, the “decrease in average fibrotic area” value in the assay on rectus femoris muscle (setting [2]) is 34.76±9.32%. Also, the “increase in average muscle area” value in the assay with rectus femoris muscle (setting [2]) is given as 3.276±0.4926 mm^2. The “satellite cell proliferation on supplementation in presence of macrophages” value with PAX7+ satellite cells (MB+macrophage co-culture) was “did not increase satellite cell proliferation in the presence of macrophages”. Further, the “satellite cell proliferation on supplementation” value was “enhanced proliferation; also recorded: stimulates proliferation of PAX7^+ satellite cells” with PAX7+ satellite cells; “able to increase the proliferation of satellite cells in MB and MB+3T3 culture conditions” with PAX7+ satellite cells (listed as hrNAMPT).
